Experimental data taken from patent publication US9204653B2, “5-fluoro pyrimidine derivatives” (DOW AGROSCIENCES LLC, priority 2008, dated 2015).
Where two headings read alike, the source gives them in different places.

Test system: Mycosphaerella graminicola; Anamorph: Septoria tritici; Bayer Code SEPTTR
Experiment: Leaf blotch of wheat, foliar fungicide treatment, one day protectant (1DP) or three day curative (3DC)
Assay type: in vivo, Septoria tritici on wheat plants (variety Yuma)
Conditions: Zymoseptoria tritici, percent disease control rating
[1] = 24 h, one day protectant (1DP), read-out: SETTTR 1DP 25 ppm
[2] = 24 h, one day protectant (1DP), read-out: SEPTTR 1DP 100 ppm
[3] = 72 h, three day curative (3DC), read-out: SEPTTR 3DC 25 ppm
[4] = 72 h, three day curative (3DC), read-out: SEPTTR 3DC 100 ppm

Row | SMILES | pest or weed control at 25 ppm [1] | pest or weed control at 100 ppm [2] | pest or weed control at 25 ppm [3] | pest or weed control at 100 ppm [4]
1 | CCCNC(=S)Nc1nc(OCc2cccc(OC)c2)ncc1F [Compound 119] | 26 to 50% | 76 to 100% | 51 to 75% | 76 to 100%
2 | Nc1nc(OCc2cccc3ccccc23)ncc1F [Compound 120] | 76 to 100% | 76 to 100% | 76 to 100% | 76 to 100%
3 | CC(Oc1ncc(F)c(NSc2ccccc2[N+](=O)[O-])n1)c1ccc(F)cc1 (stereo not drawn) [Compound 126] | 76 to 100% | 76 to 100% | 76 to 100% | 76 to 100%
4 | Nc1nc(OCCc2cccc(C(F)(F)F)c2)ncc1F [Compound 129] | 26 to 50% | 76 to 100% | 76 to 100% | 76 to 100%
5 | CN(C)/C=N/c1nc(OC(=O)C(C)(C)C)ncc1F [Compound 130] | 76 to 100% | 76 to 100% | 76 to 100% | 76 to 100%
6 | CN(C)/C=N/c1nc(OS(C)(=O)=O)ncc1F [Compound 131] | 26 to 50% | 51 to 75% | 26 to 50% | 76 to 100%
7 | Cc1nn(C)c2sc(COc3ncc(F)c(N)n3)cc12 [Compound 132] | 76 to 100% | 76 to 100% | 76 to 100% | 76 to 100%
8 | Nc1nc(OCc2cccc(CO)c2)ncc1F [Compound 133] | 51 to 75% | 76 to 100% | 51 to 75% | 76 to 100%
9 | CCOC(=O)COC(=O)Nc1nc(OCc2ccccc2)ncc1F [Compound 134] | 0 to 25% | 51 to 75% | 51 to 75% | 76 to 100%
10 | Nc1nc(OCc2ccc(OC(F)F)cc2)ncc1F [Compound 136] | 76 to 100% | 76 to 100% | 76 to 100% | 76 to 100%
11 | ONc1nc(OCc2ccc(F)cc2)ncc1F [Compound 138] | 76 to 100% | 76 to 100% | 76 to 100% | 76 to 100%
12 | Nc1nc(OCc2cc(C(F)(F)F)cc(C(F)(F)F)c2)ncc1F [Compound 139] | 26 to 50% | 51 to 75% | 0 to 25% | 26 to 50%
13 | Cc1cccc(C)c1C(=O)Oc1ncc(F)c(/N=C/N(C)C)n1 [Compound 140] | 76 to 100% | 76 to 100% | 76 to 100% | 76 to 100%
14 | N#Cc1cccc(COc2ncc(F)c(NC(=O)Nc3ccccc3F)n2)c1 [Compound 142] | 0 to 25% | 0 to 25% | 0 to 25% | 0 to 25%
15 | Nc1nc(OCc2cccc(C(F)(F)F)c2F)ncc1F [Compound 144] | 76 to 100% | 76 to 100% | 76 to 100% | 76 to 100%
16 | Cc1ccc(C(C)Oc2ncc(F)c(N)n2)cc1C (stereo not drawn) [Compound 145] | 76 to 100% | 76 to 100% | 76 to 100% | 76 to 100%
17 | CC(C)N(O)c1nc(OCc2ccc(F)cc2)ncc1F [Compound 147] | 0 to 25% | 51 to 75% | 26 to 50% | 26 to 50%
18 | COc1cccc(COc2ncc(F)c(N/N=C\c3nc(C)cs3)n2)c1 [Compound 148] | 51 to 75% | 51 to 75% | 0 to 25% | 0 to 25%
19 | CC(Oc1ncc(F)c(NC(=O)c2ccccc2)n1)c1ccc(F)cc1 (stereo not drawn) [Compound 149] | 26 to 50% | 76 to 100% | 0 to 25% | 51 to 75%
20 | CCOC(=O)Nc1nc(OCc2ccccc2OC)ncc1F [Compound 150] | 0 to 25% | 76 to 100% | 26 to 50% | 76 to 100%
21 | O=[N+]([O-])c1ccccc1SNc1nc(OCc2ccc3c(c2)OCO3)ncc1F [Compound 151] | 0 to 25% | 0 to 25% | 26 to 50% | 26 to 50%
